Tests used:
[1] = species on record: Homo sapiens; assay: Selectivity ratio of Ki for CB1 receptor (unknown origin) to Ki for CB2 receptor (unknown origin)
[2] = molecular target: Cannabinoid receptor 2 (Homo sapiens, UniProt P34972); assay: Binding affinity to CB2 receptor (unknown origin)
[3] = molecular target: Cannabinoid receptor 1 (Homo sapiens, UniProt P21554); assay: Binding affinity to CB1 receptor (unknown origin)
Sequence of Cannabinoid receptor 1 (P21554 whole entry): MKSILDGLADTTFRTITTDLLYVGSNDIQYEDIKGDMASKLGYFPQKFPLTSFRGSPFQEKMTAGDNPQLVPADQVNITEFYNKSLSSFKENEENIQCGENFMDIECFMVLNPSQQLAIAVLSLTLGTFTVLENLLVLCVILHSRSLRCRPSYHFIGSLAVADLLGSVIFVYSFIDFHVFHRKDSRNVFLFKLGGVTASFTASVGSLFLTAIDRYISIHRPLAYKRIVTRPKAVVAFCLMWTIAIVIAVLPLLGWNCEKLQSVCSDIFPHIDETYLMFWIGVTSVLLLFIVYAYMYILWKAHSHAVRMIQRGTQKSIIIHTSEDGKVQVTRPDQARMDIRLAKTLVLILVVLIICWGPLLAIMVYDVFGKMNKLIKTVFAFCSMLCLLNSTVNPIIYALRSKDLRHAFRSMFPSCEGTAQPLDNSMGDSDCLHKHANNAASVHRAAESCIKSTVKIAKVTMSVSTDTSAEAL

Sequence of Cannabinoid receptor 2 (P34972 whole entry): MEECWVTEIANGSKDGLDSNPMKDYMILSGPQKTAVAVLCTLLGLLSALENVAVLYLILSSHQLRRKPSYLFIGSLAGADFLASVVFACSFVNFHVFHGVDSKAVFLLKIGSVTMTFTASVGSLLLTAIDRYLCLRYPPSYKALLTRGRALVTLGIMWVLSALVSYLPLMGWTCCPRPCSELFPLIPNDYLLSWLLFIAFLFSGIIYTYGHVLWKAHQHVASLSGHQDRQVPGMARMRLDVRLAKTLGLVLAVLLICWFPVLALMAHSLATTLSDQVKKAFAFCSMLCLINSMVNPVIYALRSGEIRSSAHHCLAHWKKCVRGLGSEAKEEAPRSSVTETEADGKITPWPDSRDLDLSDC

| SMILES | Ratio Ki [1] | Ki [2] [nM] | Ki [3] [nM] |
| --- | --- | --- | --- |
| CCCn1cc(C(=O)c2ccc(C)c3ccccc23)c2ccccc21 | 173 |  |  |
| CN1CCCCC1Cn1cc(C(=O)c2cc([N+](=O)[O-])ccc2I)c2ccccc21 (racemic) | 82 | 3.4 | 280 |

Reference: ChEMBL document CHEMBL2424594, “Contributions of academic laboratories to the discovery and development of chemical biology tools” (J Med Chem, 2013)
